Results as given in ChEMBL document CHEMBL2401614, “Synthesis of artemisinin dimers using the Ugi reaction and their in vitro efficacy on breast cancer cells” (Bioorg Med Chem Lett, 2013).

Tests used:
MCF-10A [1] = assay: Selectivity index, ratio of IC50 for human MCF10A cells to IC50 for human BT474 cells; assay type: functional
BT-474 [2] = assay: Cytotoxicity against human BT474 cells after 48 hrs by MTT assay; assay type: functional, cell-based; details: BT-474, 48 h
MDA-MB-231 = assay: Cytotoxicity against human MDA-MB-231 cells after 48 hrs by MTT assay; assay type: functional, cell-based; details: MDA-MB-231, 48 h
MCF-10A [3] = assay: Cytotoxicity against human MCF10A cells after 48 hrs by MTT assay; assay type: cell-based
MCF-10A [4] = assay: Selectivity index, ratio of IC50 for human MCF10A cells to IC50 for human MDA-MB-231 cells; assay type: functional
[5] = Cytotoxicity against human NCI60 cells relative to artesunate; assay type: functional
BT-474 [6] = assay: Ratio of artemisinin dimer succinate IC50 to compound IC50 for human BT474 cells; assay type: functional

SMILES | Ratio IC50 (MCF-10A [1]) | IC50 (BT-474 [2]) [µM] | IC50 (MDA-MB-231) [µM] | IC50 (MCF-10A [3]) [µM] | Ratio IC50 (MCF-10A [4]) | fold change (FC) [5] | Ratio IC50 (BT-474 [6])
COC(=O)CNC(=O)C(CC[C@H]1O[C@@H]2O[C@@]3(C)CC[C@H]4[C@H](C)CC[C@@H]([C@H]1C)[C@@]24OO3)N(CCC[C@H]1O[C@@H]2O[C@@]3(C)CC[C@H]4[C@H](C)CC[C@@H]([C@H]1C)[C@@]24OO3)C(=O)c1cnccn1 (mixture of isomers) | 15 | 1.7 | 26 | 25 | 0.96 | – | –
C[C@H]1[C@H](OC(=O)CCC(=O)O)O[C@@H]2O[C@@]3(C)CC[C@H]4[C@H](C)CC[C@@H]1[C@@]24OO3 [ARTESUNATE] | 2.7 | 7.8 | 46 | 21 | 0.46 | – | –
C[C@H]1[C@@H](CC(COC(=O)CCC(=O)O)C[C@H]2O[C@@H]3O[C@@]4(C)CC[C@H]5[C@H](C)CC[C@@H]([C@H]2C)[C@@]35OO4)O[C@@H]2O[C@@]3(C)CC[C@H]4[C@H](C)CC[C@@H]1[C@@]24OO3 (stereo not given in full) | 210 | 0.1 | 0.24 | 21 | 88 | <=500 | –
COC(=O)CNC(=O)C(CC[C@H]1O[C@@H]2O[C@@]3(C)CC[C@H]4[C@H](C)CC[C@@H]([C@H]1C)[C@@]24OO3)N(CCC[C@H]1O[C@@H]2O[C@@]3(C)CC[C@H]4[C@H](C)CC[C@@H]([C@H]1C)[C@@]24OO3)C(=O)c1ccccc1 (mixture of isomers) | 6.3 | 0.79 | 11 | 5 | 0.45 | – | –
COC(=O)CNC(=O)C(CC[C@H]1O[C@@H]2O[C@@]3(C)CC[C@H]4[C@H](C)CC[C@@H]([C@H]1C)[C@@]24OO3)N(CCC[C@H]1O[C@@H]2O[C@@]3(C)CC[C@H]4[C@H](C)CC[C@@H]([C@H]1C)[C@@]24OO3)c1ccc([N+](=O)[O-])cc1 (mixture of isomers) | 490 | 0.096 | 1.2 | 47 | 39 | – | –
COC(=O)CNC(=O)C(CC[C@H]1O[C@@H]2O[C@@]3(C)CC[C@H]4[C@H](C)CC[C@@H]([C@H]1C)[C@@]24OO3)N(CCC[C@H]1O[C@@H]2O[C@@]3(C)CC[C@H]4[C@H](C)CC[C@@H]([C@H]1C)[C@@]24OO3)C(=O)c1cccc(OC)c1OC (mixture of isomers) | 0.98 | 5.8 | 12 | 5.7 | 0.48 | – | –
COC(=O)CNC(=O)C(CC[C@H]1O[C@@H]2O[C@@]3(C)CC[C@H]4[C@H](C)CC[C@@H]([C@H]1C)[C@@]24OO3)N(C(=O)c1ccccc1)C(C)C (stereo not given in full) | – | > 100 | > 100 | > 100 | – | – | –
COC(=O)CNC(=O)C(CC[C@H]1O[C@@H]2O[C@@]3(C)CC[C@H]4[C@H](C)CC[C@@H]([C@H]1C)[C@@]24OO3)N(CCC[C@H]1O[C@@H]2O[C@@]3(C)CC[C@H]4[C@H](C)CC[C@@H]([C@H]1C)[C@@]24OO3)C(=O)c1ccc(N(C)C)cc1 (mixture of isomers) | 17 | 0.88 | 12 | 15 | 1.3 | – | –
C[C@H]1[C@@H](CCCN(c2c(F)c(F)cc(F)c2F)C(CC[C@H]2O[C@@H]3O[C@@]4(C)CC[C@H]5[C@H](C)CC[C@@H]([C@H]2C)[C@@]35OO4)C(=O)NCC(=O)O)O[C@@H]2O[C@@]3(C)CC[C@H]4[C@H](C)CC[C@@H]1[C@@]24OO3 (stereo not given in full) | 8200 | 0.012 | 2.3 | 98 | 43 | – | 8
COC(=O)CNC(=O)C(CC[C@H]1O[C@@H]2O[C@@]3(C)CC[C@H]4[C@H](C)CC[C@@H]([C@H]1C)[C@@]24OO3)N(CCC[C@H]1O[C@@H]2O[C@@]3(C)CC[C@H]4[C@H](C)CC[C@@H]([C@H]1C)[C@@]24OO3)C(=O)C(F)(F)F (mixture of isomers) | 0.7 | 6.6 | 19 | 4.6 | 0.24 | – | –
